Values after ≈ are worked out from the molar mass of the structure shown. Active and inactive are the calls of the source. The calls are words filed in the database; no cut-off is given here. Peptide text beside a SMILES is read from it.
Key:
Staphylococcus aureus [1] = assay: Antimicrobial activity against Staphylococcus aureus ATCC 25923 assessed as reduction in bacterial growth by broth dilution method; assay type: functional
Enterococcus faecalis = assay: Antimicrobial activity against multi-drug resistant Enterococcus faecalis assessed as reduction in bacterial growth by broth dilution method; assay type: functional
Escherichia coli [2] = assay: Antimicrobial activity against Escherichia coli ATCC 25922 assessed as reduction in bacterial growth by broth dilution method; assay type: functional
Acinetobacter baumannii = assay: Antimicrobial activity against multi-drug resistant Acinetobacter baumannii assessed as reduction in bacterial growth by broth dilution method; assay type: functional
[3] = Hemolytic activity in human Red blood cell assessed as hemolysis incubated for 1 hrs by microplate reader based analysis; assay type: toxicity; conditions: erythrocyte
Staphylococcus aureus [4] = assay: Antimicrobial activity against multi-drug resistant Staphylococcus aureus assessed as reduction in bacterial growth in presence of NaCl; assay type: functional, organism-based
Staphylococcus aureus [5] = assay: Antimicrobial activity against multi-drug resistant Staphylococcus aureus assessed as reduction in bacterial growth in presence of KCl; assay type: functional, organism-based
Staphylococcus aureus [6] = assay: Antimicrobial activity against multi-drug resistant Staphylococcus aureus assessed as reduction in bacterial growth in presence of MgCl2; assay type: functional, organism-based
Staphylococcus aureus [7] = assay: Antimicrobial activity against multi-drug resistant Staphylococcus aureus assessed as reduction in bacterial growth in presence of FeCl3; assay type: functional, organism-based
Escherichia coli [8] = assay: Antimicrobial activity against multi-drug resistant Escherichia coli assessed as reduction in bacterial growth in presence of KCl; assay type: functional, organism-based
Escherichia coli [9] = assay: Antimicrobial activity against multi-drug resistant Escherichia coli assessed as reduction in bacterial growth in presence of MgCl2; assay type: functional, organism-based
Escherichia coli [10] = assay: Antimicrobial activity against multi-drug resistant Escherichia coli assessed as reduction in bacterial growth in presence of FeCl3; assay type: functional, organism-based
Staphylococcus aureus [11] = assay: Antimicrobial activity against multi-drug resistant Staphylococcus aureus assessed as reduction in bacterial growth measured after 6 hrs in 25% plasma; assay type: functional, organism-based
Escherichia coli [12] = assay: Antimicrobial activity against multi-drug resistant Escherichia coli assessed as reduction in bacterial growth measured after 6 hrs in 25% plasma; assay type: functional, organism-based
[13] = Half life of the compound in 25% plasma; assay type: ADME, cell-free
Escherichia coli [14] = assay: Antimicrobial activity against multi-drug resistant Escherichia coli assessed as reduction in bacterial growth at 2 times MIC measured after 1 hrs in presence of trypsin by microplate reader based analysis; assay type: functional, organism-based
Staphylococcus aureus [15] = assay: Antimicrobial activity against multi-drug resistant Staphylococcus aureus assessed as reduction in bacterial growth at 2 times MIC measured after 1 hrs in presence of trypsin by microplate reader based analysis; assay type: functional, organism-based
Staphylococcus aureus [16] = assay: Antibacterial activity against Staphylococcus aureus ATCC 25923 at sub-inhibitory concentration measured after 15 passages for 18 hrs; assay type: functional
Escherichia coli [17] = assay: Antibacterial activity against Escherichia coli […] at sub-inhibitory concentration measured after 15 passages for 18 hrs; assay type: functional, organism-based
Cell membrane [18] = assay: Disruption of cell membrane in multi-drug resistant Staphylococcus aureus assessed as stomatal formation at 2 times MIC measured for 120 mins by transmission electron microscopy analysis; assay type: subcellular
Cell membrane [19] = assay: Disruption of cell membrane in multi-drug resistant Staphylococcus aureus assessed as cell shrinkage at 2 times MIC measured for 120 mins by transmission electron microscopy analysis; assay type: subcellular
Cell membrane [20] = assay: Disruption of cell membrane in multi-drug resistant Staphylococcus aureus assessed as release of cell content at 2 times MIC measured for 120 mins by transmission electron microscopy analysis; assay type: subcellular
Cell membrane [21] = assay: Disruption of cell membrane in multi-drug resistant Escherichia coli assessed as stomatal formation at 2 times MIC measured for 120 mins by transmission electron microscopy analysis; assay type: subcellular
Cell membrane [22] = assay: Disruption of cell membrane in multi-drug resistant Escherichia coli assessed as release of cell content at 2 times MIC measured for 120 mins by transmission electron microscopy analysis; assay type: subcellular
Cell membrane [23] = assay: Disruption of cell membrane in multi-drug resistant Staphylococcus aureus assessed as increase in red fluorescence intensity of PI at 2 times MIC measured for 2 hrs by fluorescence confocal microscopic imaging based analysis; assay type: subcellular
Escherichia coli [24] = assay: Bactericidal activity against multi-drug resistant Escherichia coli at 1 times MIC preincubated with LPS for 1 hrs followed by bacterial addition and measured after 18 hrs by microplate reader based analysis; assay type: functional, organism-based; conditions: time 19.0 hrs
Cell membrane [25] = assay: Induction of outer membrane permeabilization in multi-drug resistant Escherichia coli assessed as NPN uptake at 1 to 4 times MIC measured within 1 min by fluorescence based analysis; assay type: subcellular
Cell membrane [26] = assay: Induction of cytoplasmic membrane depolarization in multi-drug resistant Escherichia coli at 1 to 4 times MIC measured within 1 min by DiSC3-5 fluorescent dye based analysis
Cell membrane [27] = assay: Induction of cytoplasmic membrane depolarization in multi-drug resistant Staphylococcus aureus at 1 to 4 times MIC measured within 1 min by DiSC3-5 fluorescent dye based analysis
Staphylococcus aureus [28] = assay: Antibiofilm activity against multi-drug resistant Staphylococcus aureus measured after 24 hrs by crystal violet staining based analysis; assay type: functional, organism-based
Escherichia coli [29] = assay: Antibiofilm activity against multi-drug resistant Escherichia coli measured after 24 hrs by crystal violet staining based analysis; assay type: functional, organism-based
Staphylococcus aureus [30] = assay: Antibiofilm activity in methicillin-resistant Staphylococcus aureus assessed as eradication of formed biofilm at 1 to 4 times MIC measured after 12 hrs by confocal microscopy based analysis; assay type: functional, organism-based
Escherichia coli [31] = assay: Antibiofilm activity in […] assessed as eradication of formed biofilm at 1 to 4 times MIC measured after 12 hrs by confocal microscopy based analysis; assay type: functional, organism-based
Escherichia coli [32] = assay: Antibacterial activity against multidrug resistant Escherichia coli infected in male Kunming mouse model assessed as reduction in bacterial load measured after 11 days in presence of levofloxacin; assay type: functional, organism-based; conditions: time 11.0 day
Escherichia coli [33] = assay: Antibacterial activity against multidrug resistant Escherichia coli infected in male Kunming mouse model assessed as reduction in wound size measured after 3 to 5 days in presence of levofloxacin by caliper method; assay type: functional, organism-based; conditions: time 3-5 day
Escherichia coli [34] = assay: Antibacterial activity against multidrug resistant Escherichia coli infected in male Kunming mouse model assessed as scabs thickening measured after 7 days in presence of levofloxacin by caliper method; assay type: functional, organism-based; conditions: time 7.0 day
Escherichia coli [35] = assay: Antibacterial activity against multidrug resistant Escherichia coli infected in male Kunming mouse model assessed as wound healing measured after 11 days in presence of levofloxacin by caliper method relative to control; assay type: functional; conditions: time 11 day
Escherichia coli [36] = assay: Antibacterial activity against multidrug resistant Escherichia coli infected in male Kunming mouse model assessed as reduction in tissue hemorrhage by H and E staining based analysis; assay type: functional, organism-based
Escherichia coli [37] = assay: Antibacterial activity against multidrug resistant Escherichia coli infected in male Kunming mouse model assessed as reduction in epidermal thickening in presence of levofloxacin by H and E staining based analysis; assay type: functional, organism-based
Escherichia coli [38] = assay: Antibacterial activity against multidrug resistant Escherichia coli infected in male Kunming mouse model assessed as reduction in vascular congestion in presence of levofloxacin by H and E staining based analysis; assay type: functional, organism-based
Escherichia coli [39] = assay: Antibacterial activity against multidrug resistant Escherichia coli infected in male Kunming mouse model assessed as reduction in tissue hemorrhage in presence of levofloxacin by H and E staining based analysis; assay type: functional, organism-based
Escherichia coli [40] = assay: Antibacterial activity against multidrug resistant Escherichia coli infected in male Kunming mouse model assessed as reduction in inflammatory cell infiltration in presence of levofloxacin by H and E staining based analysis; assay type: functional, organism-based
Escherichia coli [41] = assay: Antibacterial activity against multidrug resistant Escherichia coli infected in male Kunming mouse model assessed as reduction in IL-6 expression in presence of levofloxacin by immunochemical analysis; assay type: functional, organism-based

## CC[C@H](C)[C@H](NC(=O)[C@H](CCCCN)NC(=O)[C@@H](NC(=O)[C@H](CCCCN)NC(=O)[C@@H]1CCCN1C(=O)[C@H](Cc1c[nH]c2ccccc12)NC(=O)[C@H](Cc1c[nH]c2ccccc12)NC(=O)[C@H](Cc1c[nH]c2ccccc12)NC(=O)[C@@H]1CCCN1C(=O)[C@H](CCCCN)NC(=O)[C@@H](NC(=O)[C@H](CCCCN)NC(=O)[C@@H](NC(=O)[C@@H](N)CCCCN)[C@@H](C)CC)[C@@H](C)CC)[C@@H](C)CC)C(=O)N[C@@H](CCCCN)C(N)=O (H-KIKIKPWWWPKIKIK-NH2)
Staphylococcus aureus [1]
  MIC: 8 µM (≈ 15.9 µg/mL)
Enterococcus faecalis
  MIC: 4 µM (≈ 7.97 µg/mL)
Escherichia coli [2]
  MIC: 4 µM (≈ 7.97 µg/mL)
Acinetobacter baumannii
  MIC: 4 µM (≈ 7.97 µg/mL)
[3]
  HC10: > 256 µM
Staphylococcus aureus [4]
  Activity: Active
Staphylococcus aureus [5]
  Activity: Active
Staphylococcus aureus [6]
  Activity: Active
Staphylococcus aureus [7]
  Activity: Active
Escherichia coli [8]
  Activity: Active
Escherichia coli [9]
  Activity: Active
Escherichia coli [10]
  Activity: Active
Staphylococcus aureus [11]
  Activity: Active
Escherichia coli [12]
  Activity: Active
[13]
  half-life: 75.5 h
Escherichia coli [14]
  Activity: inactive
Staphylococcus aureus [15]
  Activity: inactive
Staphylococcus aureus [16]
  Activity: Active
Escherichia coli [17]
  Activity: Active
Cell membrane [18]
  Activity: Active
Cell membrane [19]
  Activity: Active
Cell membrane [20]
  Activity: Active
Cell membrane [21]
  Activity: Active
Cell membrane [22]
  Activity: Active
Cell membrane [23]
  Activity: Active
Escherichia coli [24]
  Activity: inactive
Cell membrane [25]
  Activity: Active
Cell membrane [26]
  Activity: Active
Cell membrane [27]
  Activity: Active
Staphylococcus aureus [28]
  Activity: Dose-dependent-effect
Escherichia coli [29]
  Activity: Dose-dependent-effect
Staphylococcus aureus [30]
  Activity: Active
Escherichia coli [31]
  Activity: Active
Escherichia coli [32]
  Activity: Active
Escherichia coli [33]
  Activity: Active
Escherichia coli [34]
  Activity: Active
Escherichia coli [35]
  Activity: 100%
Escherichia coli [36]
  Activity: Active
Escherichia coli [37]
  Activity: inactive
Escherichia coli [38]
  Activity: Active
Escherichia coli [39]
  Activity: Active
Escherichia coli [40]
  Activity: Active
Escherichia coli [41]
  Activity: Active

From ChEMBL document CHEMBL6134890, “Terminally Symmetric β-Turn Peptides for Multidrug-Resistant Bacterial Infections” (J Med Chem, 2025)
